US20050095663A1, “Process for screening fungitoxic compounds” (priority 2002, published 2005)
Where two headings read alike, the source gives them in different places.

Experiments:
[1] = tested on: Candida albicans (American Type Culture Collection strain 10231); experiment: Control of Candida albicans infection in mice; format: in vivo; details: for % Survival: mortality over 10 days
Description: Compound 1 (6-(4-chlorophenyl)-2-(2′-pentynyl)pyridazinone, described as compound 109 in European Patent Publication No. EP 478 195 A1) in 5% dimethylsulfoxide (DMSO) in saline solution was administered intraperitoneally 1 h before and at 4, 24, 48 and 72 h after intravenous inoculation with Candida albicans (American Type Culture Collection strain 10231). Ten mice were used for each treatment. Mortality was recorded over a period of 10 days.

[2] = tested on: Saccharomyces cerevisiae (strain X2180-1A); experiment: Effect of fatty acids on fungitoxicity (growth inhibition, absorbance at 700 nm); format: cell-based; details: 22 h
Description: (§1) Fifty ml of YPG culture medium (10 g yeast extract, 20 g peptone, and 20 g glucose per liter of water) in a 250 ml Erlenmeyer flask was inoculated with Saccharomyces cereviae (strain X2180-1A) to give an absorbance at 700 nm of 0.02. This culture was incubated for 18 h at 30° C. with shaking at 225 rpm. The cells were harvested by centrifugation, washed once with SD medium (6.7 g Bacto-yeast nitrogen base and 20 g glucose per liter of water), and suspended in SD medium to give an Absorbance at 700 nm of 0.04. Aliquots (5 ml) of cell suspension were distributed in 20 ml capacity glass vials. Treatments containing compound 1 or cerulenin received 25 μl of a solution of compound in dimethylsulfoxide (DMSO) at 240 ppm or 160 ppm, respectively. Control treatments without compound 1 or cerulenin received 25 ul DMSO. Treatments containing a fatty acid received 25 μl of a 2 mM solution of the fatty acid in a 1% solution of Triton X-100 providing a concentration of 10 μM. Treatments without fatty acid received 25 ul of 1% Triton X-100. All treatments were carried out in duplicate. Vials were incubated for 22 h at 30° C. with shaking at 225 rpm. Growth of the cells was then estimated by diluting the cells in each treatment 3-fold with SD medium and measuring the asorbance at 700 nm. The results in Table 3 show inhibition of growth expressed as a percentage of growth in DMSO controls containing Triton X-100 but lacking Compound 1, cerulenin or fatty acid.

S. cerevisiae [3] = experiment: Growth inhibition of S. cerevisiae by compound 1; format: cell-based; details: Saccharomyces cerevisiae, 18 h
Description: as §1
(§2) S. cerevisiae was grown in SD medium as 5 ml aliquots of cell suspension in 20 ml capacity glass vials as described in example 3 in the absence (controls) and presence of compound 1. Compound 1 was added as 25 μl of solution in DMSO, and controls received 25 ul DMSO alone. After growth for 18 h at 30° C. with shaking at 225 rpm, inhibition of growth by compound 1 was determined as described in example 3, and the fatty acid composition was determined as follows. The cells were centrifuged in 20 ml borosilicate glass culture tubes at 2000 rpm. The supernatant was decanted, and the cells were re-suspended in 10 ml of water and re-centrifuged at 2000 rpm. The supernatant was decanted, and the cells were saponified by heating at 80° C. for 1 hour in 2.5 ml of 10% potassium hydroxide solution in 90% methanol/10% water. The non-saponifiable lipids were removed by extracting the basic solution with 2×3 ml of cyclohexane. The basic solution was then acidified to pH 2 with 6N hydrochloric acid, and the acidic solution was again extracted with 2×3 ml of cyclohexane. These extracts were analyzed directly by capillary gas chromatography using an HP5890 gas chromatograph equipped with a Restek Stabilwax DB capillary column (30m×0.53 mm i.d.×0.25 μm film thickness) and a flame ionization detector. Analyses were run at 225° C. isothermally, and compared to a sample free fatty acid mixture prepared from authentic standards purchased from Sigma.

[4] = target: T1, Rat liver Δ-9 fatty acid desaturase (Rattus norvegicus, UniProt P07308); experiment: Rat liver microsomal Δ-9 fatty acid desaturase assay (14C-palmitoyl-CoA to palmitoleic acid); format: biochemical
T1 construct: The upper gelatinous layer is the microsomal fraction; from tissue; host or cells: liver of Sprague-Dawley rats (starved, then fed a fat-free diet), microsomal fraction
T1 sequence (P07308 1-358): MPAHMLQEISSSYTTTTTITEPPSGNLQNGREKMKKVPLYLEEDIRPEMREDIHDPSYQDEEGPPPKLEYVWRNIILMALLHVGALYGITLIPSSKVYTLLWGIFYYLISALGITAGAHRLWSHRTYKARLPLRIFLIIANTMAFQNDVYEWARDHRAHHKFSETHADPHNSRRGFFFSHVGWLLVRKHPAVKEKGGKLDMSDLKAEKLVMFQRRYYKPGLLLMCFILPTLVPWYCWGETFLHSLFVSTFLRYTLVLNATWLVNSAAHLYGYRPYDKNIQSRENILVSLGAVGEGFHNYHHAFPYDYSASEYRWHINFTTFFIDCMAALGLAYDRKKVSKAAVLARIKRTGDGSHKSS
Description: The following method was used to prepare the microsomal Δ-9 fatty acid desaturase from rat liver. Sprague-Dawley rats weighing between 120 and 180 g were fed with Purina laboratory chow, starved for 48 h, then fed with a “Fat-Free” test diet (Nutritional Biochemical Corporation) for 20 h. Livers were removed and placed in cold […] Tris-acetate buffer, pH 8.1, containing 0.25 M sucrose and 1 mM EDTA. The tissue was washed twice with 10 volumes of cold buffer, blotted dry and weighed. The tissue was minced and homogenized in 5 ml of buffer per gram of tissue using a glass homogenizer with a loose fitting Teflon pestle. […]
Delta-9 Fatty acid desaturase assays were performed by measuring the desaturation of ^14C-palmitoyl-CoA to palmitoleic acid using 0.5 ml reaction mixtures containing 0.1 M potassium phosphate buffer, pH 7.2, 1 mM NADH and 26 μM ^14C-palmitoyl-CoA (0.028 μCi per assay) in 13×100 mm glass culture tubes. […] The upper cyclohexane layer was removed and 100 μI analyzed by HPLC on a Supelcosil LC-18 column (25×4.6 mm) with methanol-water-phosphoric acid (90:9.9:0.1, by volume) as the mobile phase at a flow rate of 1 ml/min. A Packard A120 RAM detector was used to determine the amounts of radioactivity in the palmitic and palmitoleic acid fractions. […] The concentration of compound 1 which inhibited production of palmitoleic acid by 50% was determined from dose-response curves.

S. cerevisiae [5] = experiment: Fatty acid composition of S. cerevisiae after treatment (capillary gas chromatography); format: cell-based, Saccharomyces cerevisiae; details: 18 h
Description: as §2

[6] = target: T2, Yeast Δ-9 fatty acid desaturase (Saccharomyces cerevisiae, UniProt P21147); experiment: Yeast microsomal Δ-9 fatty acid desaturase assay (14C-palmitoyl-CoA to palmitoleic acid); format: biochemical
T2 construct: the resulting microsomal pellet suspended in 10 ml of ice-cold 0.1 M potassium phosphate buffer; endogenous in cells; host or cells: Saccharomyces cerevisiae ATCC strain 12341, microsomal fraction
T2 sequence (P21147 whole entry, stated change not applied): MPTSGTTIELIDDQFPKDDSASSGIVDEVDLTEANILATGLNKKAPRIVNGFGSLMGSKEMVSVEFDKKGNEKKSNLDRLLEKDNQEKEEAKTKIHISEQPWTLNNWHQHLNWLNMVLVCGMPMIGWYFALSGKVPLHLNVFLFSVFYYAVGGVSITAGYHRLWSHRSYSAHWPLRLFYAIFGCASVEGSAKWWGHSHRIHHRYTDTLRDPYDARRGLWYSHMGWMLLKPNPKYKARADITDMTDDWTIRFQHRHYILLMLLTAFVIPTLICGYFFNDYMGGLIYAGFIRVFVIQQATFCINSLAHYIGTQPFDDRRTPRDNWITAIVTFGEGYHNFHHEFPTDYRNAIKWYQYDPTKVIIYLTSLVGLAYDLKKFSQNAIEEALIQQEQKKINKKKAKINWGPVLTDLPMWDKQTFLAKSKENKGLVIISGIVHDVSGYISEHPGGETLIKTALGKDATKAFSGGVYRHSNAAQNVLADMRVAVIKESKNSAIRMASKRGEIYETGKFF
Description: The following method was used to prepare the microsomal Δ-9 fatty acid desaturase from yeast. Two 250 ml flasks containing 100 ml each of glucose-yeast extract medium (0.4% yeast extract and 2% glucose) were inoculated with Saccharomyces cerevisiae strain 12341 obtained from the American Type Culture Collection, and grown for 48 h at 30° C. with shaking at 250 rpm. The cells were used to inoculate a 4 liter flask containing 3.6 liters of medium. The cells were grown at 30° C. with gentle shaking at 90 rpm for 24 h. […]
Delta-9 Fatty acid desaturase assays were performed by measuring the desaturation of ^14C-palmitoyl-CoA to palmitoleic acid using 0.5 ml reaction mixtures containing 0.1 M potassium phosphate buffer, pH 7.2, 1 mM NADH and 26 μM ^14C-palmitoyl-CoA (0.028 μCi per assay) in 13×100 mm glass culture tubes. […] The upper cyclohexane layer was removed and 100 μI analyzed by HPLC on a Supelcosil LC-18 column (25×4.6 mm) with methanol-water-phosphoric acid (90:9.9:0.1, by volume) as the mobile phase at a flow rate of 1 ml/min. A Packard A120 RAM detector was used to determine the amounts of radioactivity in the palmitic and palmitoleic acid fractions. The percent inhibition of desaturation was determined by comparing the production of palmitoleic acid in assays containing compound 1 with production in assays containing DMSO alone. […]

[7] = microsomal preparation, 26 μM 14C-palmitoyl-CoA, 30° C., 5 min

C[C@@H]1[C@H](O)[C@@H](C)/C=C/C=C/C=C/C=C/C=C/C=C/C=C/[C@H](O[C@@H]2O[C@H](C)[C@@H](O)[C@H](N)[C@@H]2O)C[C@@H]2O[C@](O)(C[C@@H](O)C[C@@H](O)[C@H](O)CC[C@@H](O)C[C@@H](O)CC(=O)O[C@H]1C)C[C@H](O)[C@H]2C(=O)O [Amphotericin B, reference compound]
% Survival ([1]; 10 mg/kg): 100%

C/C=C/C/C=C/CCC(=O)[C@H]1O[C@H]1C(N)=O [Cerulenin, cerulenin, reference compound]
inhibition at 0.8 ppm ([2]; read-out: % Inhibition of growth, 0.8 ppm, no fatty acid, 22 h): 35.6%
inhibition at 0.8 ppm ([2]; read-out: % Inhibition of growth, 0.8 ppm, oleic acid 10 μM, 22 h): 3.3%
inhibition at 0.8 ppm ([2]; read-out: % Inhibition of growth, 0.8 ppm, palmitic acid 10 μM, 22 h): 15.2%
inhibition at 0.8 ppm ([2]; read-out: % Inhibition of growth, 0.8 ppm, palmitoleic acid 10 μM, 22 h): 4.5%
inhibition at 0.8 ppm ([2]; read-out: % Inhibition of growth, 0.8 ppm, pentadecanoic acid 10 μM, 22 h): 20.3%

CCC#CCn1nc(-c2ccc(Cl)cc2)ccc1=O [Compound 1, 6-(4-chlorophenyl)-2-(2′-pentynyl)pyridazinone]
inhibition at 0.0625 µg/mL (S. cerevisiae [3]; 0.0625 μg/ml): 10.1%
inhibition at 0.125 µg/mL (S. cerevisiae [3]; 0.125 μg/ml): 14.3%
inhibition at 0.25 µg/mL (S. cerevisiae [3]; 0.25 μg/ml): 19.1%
inhibition at 0.5 µg/mL (S. cerevisiae [3]; 0.5 μg/ml): 38.7%
inhibition at 1 µg/mL (S. cerevisiae [3]; 1 μg/ml): 54.4%
inhibition at 2 µg/mL (S. cerevisiae [3]; 2 μg/ml): 66.4%
Inhibition of mammalian Δ-9 fatty acid desaturase (in words) [4]: does not inhibit
Rat liver desaturase EC50 [4, 7]: >100 ppm
oleic acid per milligram dry weight of cells (S. cerevisiae [5]; 0.0625 μg/ml): 8.5 µg/mg
palmitic acid per milligram dry weight of cells (S. cerevisiae [5]; 0.0625 μg/ml): 7.1 µg/mg
palmitoleic acid per milligram dry weight of cells (S. cerevisiae [5]; 0.0625 μg/ml): 14.2 µg/mg
stearic acid per milligram dry weight of cells (S. cerevisiae [5]; 0.0625 μg/ml): 2.8 µg/mg
oleic acid per milligram dry weight of cells (S. cerevisiae [5]; 0.125 μg/ml): 4.3 µg/mg
palmitic acid per milligram dry weight of cells (S. cerevisiae [5]; 0.125 μg/ml): 6.5 µg/mg
palmitoleic acid per milligram dry weight of cells (S. cerevisiae [5]; 0.125 μg/ml): 14 µg/mg
stearic acid per milligram dry weight of cells (S. cerevisiae [5]; 0.125 μg/ml): 3.1 µg/mg
oleic acid per milligram dry weight of cells (S. cerevisiae [5]; 0.25 μg/ml): 2.7 µg/mg
palmitic acid per milligram dry weight of cells (S. cerevisiae [5]; 0.25 μg/ml): 6 µg/mg
palmitoleic acid per milligram dry weight of cells (S. cerevisiae [5]; 0.25 μg/ml): 3 µg/mg
stearic acid per milligram dry weight of cells (S. cerevisiae [5]; 0.25 μg/ml): 3 µg/mg
oleic acid per milligram dry weight of cells (S. cerevisiae [5]; 0.5 μg/ml): 1.1 µg/mg
palmitic acid per milligram dry weight of cells (S. cerevisiae [5]; 0.5 μg/ml): 5.2 µg/mg
palmitoleic acid per milligram dry weight of cells (S. cerevisiae [5]; 0.5 μg/ml): 1 µg/mg
stearic acid per milligram dry weight of cells (S. cerevisiae [5]; 0.5 μg/ml): 4.7 µg/mg
oleic acid per milligram dry weight of cells (S. cerevisiae [5]; 1 μg/ml): 1.2 µg/mg
palmitic acid per milligram dry weight of cells (S. cerevisiae [5]; 1 μg/ml): 6.7 µg/mg
palmitoleic acid per milligram dry weight of cells (S. cerevisiae [5]; 1 μg/ml): 0 µg/mg
stearic acid per milligram dry weight of cells (S. cerevisiae [5]; 1 μg/ml): 5 µg/mg
oleic acid per milligram dry weight of cells (S. cerevisiae [5]; 2 μg/ml): 0.5 µg/mg
palmitic acid per milligram dry weight of cells (S. cerevisiae [5]; 2 μg/ml): 5 µg/mg
palmitoleic acid per milligram dry weight of cells (S. cerevisiae [5]; 2 μg/ml): 0 µg/mg
stearic acid per milligram dry weight of cells (S. cerevisiae [5]; 2 μg/ml): 4.2 µg/mg
Inhibition of Candida albicans infection in mice (in words) [1]: effective inhibitor
% Survival ([1]; 10 mg/kg): 20%
% Survival ([1]; 30 mg/kg intraperitoneally 1 h before and 4, 24, 48, 72 h after i.v. inoculation): 40%
% Survival ([1]; 100 mg/kg intraperitoneally 1 h before and 4, 24, 48, 72 h after i.v. inoculation): 50%
inhibition at 1.2 ppm ([2]; no fatty acid): 76.9%
inhibition at 1.2 ppm ([2]; oleic acid 10 μM): 18.7%
inhibition at 1.2 ppm ([2]; palmitic acid 10 μM): 95.5%
inhibition at 1.2 ppm ([2]; palmitoleic acid 10 μM): 21.8%
inhibition at 1.2 ppm ([2]; pentadecanoic acid 10 μM): 96.7%
Inhibition of fungal Δ-9 fatty acid desaturase (in words) [6]: potent inhibitor
Yeast desaturase EC50 [6, 7]: 0.055 ppm
